Results from ChEMBL document CHEMBL6083254, “Optimization of B-Ring-Functionalized Antimalarial Tambjamines and Prodiginines” (J Med Chem, 2024).
Calls of active or inactive are those of the source. The calls are words filed in the database; no cut-off is given here.

Columns and labels:
[1] = test system: Plasmodium yoelii; assay: Antiplasmodial activity against asexual erythrocytic stage of Plasmodium yoelii infected in female CFI mouse model at 25 mg/kg, po administered once daily for 4 days and measured on day 5 by Giemsa staining based microscopic analysis; type: functional, organism-based; details: time 5.0 day
[2] = test system: Plasmodium falciparum; assay: microbe, parasite or virus in culture; details: Dd2, 72 h
[3] = test system: Plasmodium falciparum; assay: microbe, parasite or virus in culture; details: D6, 72 h
[4] = in vitro; details: human
Description: Selectivity index, ratio of IC50 for cytotoxicity against human HepG2 cells assessed as cell viability to IC50 for antiplasmodial activity against asexual erythrocytic stage of Plasmodium falciparum D6 assessed as inhibition of parasitic growth incubated

[5] = test system: Plasmodium yoelii; assay: Antiplasmodial activity against asexual erythrocytic stage of Plasmodium yoelii infected in female CFI mouse model assessed as reduction in parasitemia at 1 mg/kg, po administered once daily for 4 days and measured on day 5 by Giemsa staining based microscopic analysis relative to control; type: functional
[6] = test system: Plasmodium falciparum; assay: microbe, parasite or virus in culture; details: Tm90-C2B, 72 h
[7] = test system: Plasmodium yoelii; assay: Antiplasmodial activity against asexual erythrocytic stage of Plasmodium yoelii infected in female CFI mouse model assessed as reduction in parasitemia at 25 mg/kg, po administered once daily for 4 days and measured on day 5 by Giemsa staining based microscopic analysis relative to control; type: functional; design: scale not given: the % may be the effect or the level left; details: time 5 day
[8] = test system: Plasmodium yoelii; assay: Antiplasmodial activity against asexual erythrocytic stage of Plasmodium yoelii infected in female CFI mouse model assessed as reduction in parasitemia at 3 mg/kg, po administered once daily for 4 days and measured on day 5 by Giemsa staining based microscopic analysis relative to control; type: functional
[9] = test system: HepG2; assay: Cytotoxicity against human HepG2 cells assessed as cell viability incubated for 72 hrs by MTT assay; type: toxicity, cell-based; details: hepg2
[10] = test system: Plasmodium yoelii; assay: Antiplasmodial activity against asexual erythrocytic stage of Plasmodium yoelii infected in female CFI mouse model assessed as reduction in parasitemia at 10 mg/kg, po administered once daily for 4 days and measured on day 5 by Giemsa staining based microscopic analysis relative to control; type: functional
[11] = Metabolic stability in human liver microsomes assessed as intrinsic clearance measured upto 60 mins LC-MS analysis
[12] = Metabolic stability in mouse liver microsomes assessed as intrinsic clearance measured upto 60 mins LC-MS analysis
[13] = Metabolic stability in human liver microsomes assessed as half life measured upto 60 mins LC-MS analysis
[14] = Aqueous solubility of compound in PBS buffer at pH 7.4 incubated for 90 mins by UV-vis spectroscopic analysis; details: pH 7.4, 1.5 h
[15] = Metabolic stability in mouse liver microsomes assessed as half life measured upto 60 mins LC-MS analysis

SMILES | Activity [1] | IC50 [2] [nM] | IC50 [3] [nM] | selectivity ratio [4] | Activity ([5]; time 5.0 day) | IC50 [6] [nM] | Activity [7] [%] | Activity ([8]; time 5.0 day) | IC50 [9] [nM] | Activity ([10]; time 5.0 day) | microsomal CLint at 1 h [11] [µL/min/mg] | microsomal CLint at 1 h [12] [µL/min/mg] | half-life at 1 h [13] [min] | solubility [14] [µM] | half-life at 1 h [15] [min] | Activity ([5]; time 5 day) [%] | Activity ([8]; time 5 day) [%] | Activity ([10]; time 5 day) [%]
CCCCCCCCCCCc1ccc(/C=C2\N=C(c3ccc[nH]3)C=C2OCCC)[nH]1.Cl | inactive | 7.56 | 6.71 | 2810 | inactive | 8.01 | 100 | inactive | 18900 | inactive | – | – | – | – | – | – | – | –
CCCCCc1cc(/C=C2\N=C(c3ccc[nH]3)C=C2OCc2ccc(Cl)cc2)[nH]c1C.Cl | – | 4.44 | 7.13 | 1480 | inactive | 8.73 | 97.1 | inactive | 10500 | inactive | – | – | – | – | – | – | – | –
CCCCCCCCCCCc1ccc(/C=C2\N=C(c3ccc[nH]3)C=C2OCc2ccccc2)[nH]1.Cl | – | 26.4 | – | 2020 | inactive | 22.4 | 62.3 | inactive | 53600 | inactive | 7.29 | 4.03 | > 60 | < 3.125 | > 60 | – | – | –
CCCCCCCCCCCc1ccc(/C=C2\N=C(c3ccc[nH]3)C=C2OC(C)C)[nH]1.Cl | inactive | 18.2 | 26.9 | 3240 | inactive | 35.6 | 100 | inactive | 87300 | inactive | – | – | – | – | – | – | – | –
CCN(CC)CCCC(C)Nc1ccnc2cc(Cl)ccc12 (stereo not drawn) [CHLOROQUINE] | inactive | – | – | – | inactive | – | 100 | inactive | – | inactive | – | – | – | – | – | – | – | –
CCCCCc1cc(/C=C2\N=C(c3ccc[nH]3)C=C2OCc2ccc(OC(F)(F)F)cc2)[nH]c1C.Cl | inactive | 7.97 | 7.24 | 900 | inactive | 12.5 | 100 | inactive | 6520 | inactive | – | – | – | – | – | – | – | –
CCCCCc1cc(/C=C2\N=C(c3ccc[nH]3)C=C2OCc2ccccc2)[nH]c1C.Cl | – | 4.25 | 7.91 | 896 | – | 9.73 | 100 | – | 7090 | – | 3.89 | 7.33 | > 60 | < 3.125 | > 60 | 16.8 | 43.3 | 86.9
CCCCCCCCCCCc1ccc(/C=C2\N=C(c3ccc[nH]3)C=C2OCC)[nH]1.Cl | inactive | 3.45 | 4.41 | 4750 | inactive | 4.02 | 100 | inactive | 21000 | inactive | 19.1 | 33.1 | > 60 | < 3.125 | 41.9 | – | – | –
CC(C)OC1=CC(c2ccc[nH]2)=N/C1=C\NC1CCCCCC1.Cl | – | 3.82 | 3.51 | 1020 | – | 5.42 | 43.6 | – | 3580 | – | 114 | 76.8 | 12.2 | 157 | 18 | – | – | –
CCOC1=CC(c2ccc[nH]2)=N/C1=C\NC12CC3CC(CC(C3)C1)C2.Cl | – | 0.77 | 0.497 | 2150 | – | 0.715 | 24 | – | 1070 | – | 78.3 | 42.4 | 17.7 | 115 | 32.7 | – | – | –
